Data on 33 compounds can be found in ChEMBL document CHEMBL1140792, “Isothiazolidinone inhibitors of PTP1B containing imidazoles and imidazolines” (Bioorg Med Chem Lett, 2008).

By pIC50 is commonly meant −log10 of the IC50, conventionally taken in molar units. Low values mean a high IC50, high ones a low IC50.

pIC50: −log10 of the molar value.

Assay [1] concerns the target T1, Tyrosine-protein phosphatase non-receptor type 1 (Homo sapiens, UniProt P18031).
T1 sequence (P18031 whole entry): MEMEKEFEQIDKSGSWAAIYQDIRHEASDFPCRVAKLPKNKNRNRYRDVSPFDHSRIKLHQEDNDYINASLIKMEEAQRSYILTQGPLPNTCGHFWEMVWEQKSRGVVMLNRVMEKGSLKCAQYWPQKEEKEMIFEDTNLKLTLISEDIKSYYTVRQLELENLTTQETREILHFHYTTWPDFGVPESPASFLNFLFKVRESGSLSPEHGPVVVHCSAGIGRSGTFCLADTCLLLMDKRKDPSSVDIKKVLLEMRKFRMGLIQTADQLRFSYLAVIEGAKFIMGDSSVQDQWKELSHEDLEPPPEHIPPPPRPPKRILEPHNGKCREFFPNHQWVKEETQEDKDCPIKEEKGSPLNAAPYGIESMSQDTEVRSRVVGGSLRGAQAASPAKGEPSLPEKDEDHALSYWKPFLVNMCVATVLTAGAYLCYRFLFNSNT
The assay is described as follows: Inhibition of PTP1B by pNPP assay.

For assay [2], the target named is T2, Tyrosine-protein phosphatase non-receptor type 2 (Homo sapiens, UniProt P17706).
T2 sequence (P17706 whole entry): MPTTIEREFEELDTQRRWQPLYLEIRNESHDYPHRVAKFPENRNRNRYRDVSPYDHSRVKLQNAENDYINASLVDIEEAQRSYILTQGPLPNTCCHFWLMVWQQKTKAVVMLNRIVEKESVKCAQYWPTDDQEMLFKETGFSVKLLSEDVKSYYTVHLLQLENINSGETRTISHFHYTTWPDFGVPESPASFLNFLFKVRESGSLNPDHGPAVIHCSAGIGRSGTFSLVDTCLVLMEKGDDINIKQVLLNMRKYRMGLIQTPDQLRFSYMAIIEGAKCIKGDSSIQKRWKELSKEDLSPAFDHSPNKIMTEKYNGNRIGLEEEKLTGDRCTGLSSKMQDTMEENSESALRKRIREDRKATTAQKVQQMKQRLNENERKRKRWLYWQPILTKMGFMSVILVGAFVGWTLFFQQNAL
The experiment in a line: Inhibition of TCPTP by pNPP assay.

Assay [3] can be described thus: Selectivity for PTP1B over TCPTP.

`O=C1CC(c2ccc(CC(NS(=O)(=O)c3cccc(F)c3)c3ncc(Cc4ccccc4)[nH]3)cc2)S(=O)(=O)N1` (configuration not stated): the negative logarithm of the IC50 (pIC50) in assay [1] was 6.60; in assay [2], 6.57. For the compound `O=C1CC(c2ccc(CC(NS(=O)(=O)c3cccc(F)c3)C3=NC[C@@H](Cc4ccccc4F)N3)cc2)S(=O)(=O)N1` (some centres not stated), the pIC50 in assay [2] is 7.42.

Compound `O=C1CC(c2ccc(CC(NS(=O)(=O)c3cccc(C(F)(F)F)c3)c3nc4ccccc4[nH]3)cc2)S(=O)(=O)N1` (configuration not stated) showed a pIC50 in assay [2] of 7.37. Take `Cc1cc(CC(NS(=O)(=O)c2cccc(F)c2)c2ncc(CCCOc3cccc(O)c3C(=O)O)[nH]2)ccc1C1CC(=O)NS1(=O)=O` (configuration not stated): the pIC50 in assay [1] is 6.92; in assay [2], 6.77. Take `O=C1CC(c2ccc(CC(NS(=O)(=O)c3cccc(C(F)(F)F)c3)C3=NC[C@@H](Cc4ccccc4)N3)cc2)S(=O)(=O)N1` (some centres not stated): the negative logarithm of the IC50 (pIC50) in assay [1] was 6.82; in assay [2], 6.92. On to `O=C1CC(c2ccc(CC(NS(=O)(=O)c3cccc(C(F)(F)F)c3)c3ncc(CCCCc4ccccc4)[nH]3)cc2)S(=O)(=O)N1` (configuration not stated), for which the negative logarithm of the IC50 (pIC50) in assay [1] was 6.70; in assay [2], 6.80. In the same order, the values of `Cc1cc(CC(NS(=O)(=O)c2cccc(F)c2)C2=NC[C@@H](CCCOc3cccc(S(C)(=O)=O)c3)N2)ccc1C1CC(=O)NS1(=O)=O` (some centres not stated) are 6.80 and 7.08. `O=C1CC(c2ccc(CC(NS(=O)(=O)c3cccc(C(F)(F)F)c3)c3ncc(CCc4ccccc4)[nH]3)cc2)S(=O)(=O)N1` (configuration not stated): the negative-log IC50 (pIC50) in assay [1] and in assay [2] was 6.77 each time. Take `COC(=O)c1c(O)cccc1OCCCC[C@@H]1CN=C(C(Cc2ccc(C3CC(=O)NS3(=O)=O)c(C)c2)NS(=O)(=O)c2cccc(F)c2)N1` (some centres not stated): the pIC50 in assay [1] is 6.96; in assay [2], 7.19. Consider `C[C@@H]1CN=C(C(Cc2ccc(C3CC(=O)NS3(=O)=O)cc2)NS(=O)(=O)c2cccc(C(F)(F)F)c2)N1` (some centres not stated), for which the pIC50 is 6.27 in assay [1] and 6.38 in assay [2]. For `O=C1CC(c2ccc(CC(NS(=O)(=O)c3cccc(C(F)(F)F)c3)c3ncc[nH]3)cc2)S(=O)(=O)N1` (configuration not stated), the pIC50 in assay [1] is 6.62; in assay [2], 6.57. For the compound `Cc1cc(CC(NS(=O)(=O)c2cccc(F)c2)C2=NC[C@@H](COc3cccc(S(C)(=O)=O)c3)N2)ccc1C1CC(=O)NS1(=O)=O` (some centres not stated), the values for the negative-log IC50 (pIC50) in assay [1] and in assay [2] were 6.10 and 6.33, respectively.

Take `O=C1CC(c2ccc(CC(NS(=O)(=O)c3cccc(F)c3)C3=NC[C@@H](Cc4ccccc4)N3)cc2)S(=O)(=O)N1` (some centres not stated): the negative-log IC50 (pIC50) in assay [1] is 6.68; in assay [2], 6.85. With `Cc1cc(CC(NS(=O)(=O)c2cccc(F)c2)C2=NC[C@@H](CCCCOc3cccc(O)c3C(=O)O)N2)ccc1C1CC(=O)NS1(=O)=O` (some centres not stated), the pIC50 was 7.66 in assay [1] and 7.34 in assay [2]. The Ratio IC50 in assay [3] came out at 2. In the case of `O=C1CC(c2ccc(CC(NS(=O)(=O)c3cccc(C(F)(F)F)c3)c3ncc(-c4ccccc4)[nH]3)cc2)S(=O)(=O)N1` (configuration not stated), the negative logarithm of the IC50 (pIC50) in assay [2] is 7.21. Take `Cc1cc(CC(NS(=O)(=O)c2cccc(F)c2)C2=NC[C@@H](CCOc3cccc(S(C)(=O)=O)c3)N2)ccc1C1CC(=O)NS1(=O)=O` (some centres not stated): the negative-log IC50 (pIC50) is 7.64 in assay [1] and 7.60 in assay [2]. As to `O=C1CC(c2ccc(CC(NS(=O)(=O)c3cccc(C(F)(F)F)c3)c3ncc(CCCc4ccccc4)[nH]3)cc2)S(=O)(=O)N1` (configuration not stated), the pIC50 in assay [1] was 7.28; in assay [2], 7.29. In the same order, the values of `COC(=O)c1c(O)cccc1OCCCc1cnc(C(Cc2ccc(C3CC(=O)NS3(=O)=O)c(C)c2)NS(=O)(=O)c2cccc(F)c2)[nH]1` (configuration not stated) are 6.46 and 6.77. In the case of `C[C@H]1CN=C(C(Cc2ccc(C3CC(=O)NS3(=O)=O)cc2)NS(=O)(=O)c2cccc(C(F)(F)F)c2)N1` (some centres not stated), the pIC50 was 6.09 in assay [1] and 6.17 in assay [2]. Take `O=C1CC(c2ccc(CC(NS(=O)(=O)c3cccc(F)c3)C3=NC[C@@H](CCc4ccccc4)N3)cc2)S(=O)(=O)N1` (some centres not stated): the pIC50 was 6.89 in assay [1] and 7.17 in assay [2]. In the case of `O=C1CC(c2ccc(CC(NS(=O)(=O)c3cccc(C(F)(F)F)c3)C3=NC[C@H](Cc4ccccc4)N3)cc2)S(=O)(=O)N1` (some centres not stated), the negative logarithm of the IC50 (pIC50) was 5.89 in assay [1] and 5.96 in assay [2]. For `O=C1CC(c2ccc(CC(NS(=O)(=O)c3cccc(F)c3)c3nc(-c4ccccc4)c[nH]3)cc2)S(=O)(=O)N1` (configuration not stated), the pIC50 is 6.80 in assay [1] and 7.05 in assay [2]. Take `O=C1CC(c2ccc(CC(NS(=O)(=O)c3cccc(F)c3)c3ncc(CCCCc4ccccc4)[nH]3)cc2)S(=O)(=O)N1` (configuration not stated): the negative-log IC50 (pIC50) in assay [1] was 6.59; in assay [2], 6.96. Compound `O=C1CC(c2ccc(CC(NS(=O)(=O)c3cccc(F)c3)c3ncc(CCCc4ccccc4)[nH]3)cc2)S(=O)(=O)N1` (configuration not stated) had a negative-log IC50 (pIC50) in assay [2] of 7.62. Regarding `O=C1CC(c2ccc(CC(NS(=O)(=O)c3cccc(C(F)(F)F)c3)c3ncc(Cc4ccccc4)[nH]3)cc2)S(=O)(=O)N1` (configuration not stated), in assay [2], the pIC50 was 6.64. Consider `COC(=O)c1c(O)cccc1OCCCCc1cnc(C(Cc2ccc(C3CC(=O)NS3(=O)=O)c(C)c2)NS(=O)(=O)c2cccc(F)c2)[nH]1` (configuration not stated), for which the negative logarithm of the IC50 (pIC50) is 6.80 in assay [1] and 6.77 in assay [2]. The like results for `O=C1CC(c2ccc(CC(NS(=O)(=O)c3cccc(F)c3)c3ncc(CCc4ccccc4)[nH]3)cc2)S(=O)(=O)N1` (configuration not stated) were, in that order, 6.74 and 7.00. With `O=C1CC(c2ccc(CC(NS(=O)(=O)c3cccc(C(F)(F)F)c3)C3=NC[C@@H](c4ccccc4)N3)cc2)S(=O)(=O)N1` (some centres not stated), the pIC50 is 6.18 in assay [1] and 6.37 in assay [2]. For the compound `CC1(C)CN=C(C(Cc2ccc(C3CC(=O)NS3(=O)=O)cc2)NS(=O)(=O)c2cccc(C(F)(F)F)c2)N1` (configuration not stated), the pIC50 in assay [1] is 6.03; in assay [2], 6.15. In the case of `Cc1cc(CC(NS(=O)(=O)c2cccc(F)c2)c2ncc(CCCCOc3cccc(O)c3C(=O)O)[nH]2)ccc1C1CC(=O)NS1(=O)=O` (configuration not stated), the pIC50 in assay [1] is 7.49; in assay [2] it was 7.34. The like results for `O=C1CC(c2ccc(CC(NS(=O)(=O)c3cccc(C(F)(F)F)c3)C3=NC[C@H](c4ccccc4)N3)cc2)S(=O)(=O)N1` (some centres not stated) were, in that order, 5.54 and 5.68. In the same order, the values of `O=C1CC(c2ccc(CC(NS(=O)(=O)c3cccc(C(F)(F)F)c3)C3=NCCN3)cc2)S(=O)(=O)N1` (configuration not stated) are 6.15 and 6.30. `NC(=O)C(Cc1ccc(C2CC(=O)NS2(=O)=O)cc1)NS(=O)(=O)c1cccc(C(F)(F)F)c1` (configuration not stated): the pIC50 in assay [1] and in assay [2] was 5.30 in each case.
